Paper PMC10892041, “Vanadium Complexes with Thioanilide Derivatives of Amino Acids: Inhibition of Human Phosphatases and Specificity in Various Cell Models of Metabolic Disturbances” (Pharmaceuticals, 2024)

Experiments:
SHP2 = molecular target: T1, SHP2 (Homo sapiens, UniProt Q06124); assay: Inhibition of human recombinant tyrosine phosphatase SHP2 (DiFMUP fluorescence); format: biochemical; conditions: for Inhibition of SHP2, percentage of inhibition of the control: 1 µM, control solvent only, SD did not exceed 6%
T1 construct: purchased Sigma-Aldrich
T1 sequence (Q06124 1-593): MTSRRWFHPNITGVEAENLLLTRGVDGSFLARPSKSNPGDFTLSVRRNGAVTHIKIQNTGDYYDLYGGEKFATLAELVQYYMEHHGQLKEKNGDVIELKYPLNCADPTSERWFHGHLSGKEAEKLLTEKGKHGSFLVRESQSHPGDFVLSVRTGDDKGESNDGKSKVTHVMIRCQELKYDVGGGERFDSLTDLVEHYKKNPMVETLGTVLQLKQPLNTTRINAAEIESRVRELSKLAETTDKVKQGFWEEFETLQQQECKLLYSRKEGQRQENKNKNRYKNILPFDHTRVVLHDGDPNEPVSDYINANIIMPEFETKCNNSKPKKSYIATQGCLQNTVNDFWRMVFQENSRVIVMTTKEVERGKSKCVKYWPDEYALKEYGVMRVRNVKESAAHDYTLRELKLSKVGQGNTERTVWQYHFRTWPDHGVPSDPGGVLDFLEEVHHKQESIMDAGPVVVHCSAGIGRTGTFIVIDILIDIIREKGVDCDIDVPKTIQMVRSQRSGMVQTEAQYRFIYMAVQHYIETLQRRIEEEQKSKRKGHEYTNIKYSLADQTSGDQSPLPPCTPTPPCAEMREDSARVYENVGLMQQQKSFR
Procedure, shortened: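 Human recombinant phosphatases (SHP1 400 ng/mL, SHP2 50 ng/mL, LAR 5 ng/mL final) were pre-incubated 10 min with compound in 25 mM MOPS pH 7.0, 50 mM NaCl, 1 mM DTT, 0.05% Tween-20. DiFMUP (0.1 mM final) was added for 20 min at 23 °C and fluorescence read at 355/560 nm. Screening used 1 µM compound (% inhibition vs vehicle); IC50 also reported.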

CDC25A = molecular target: T2, CDC25A (Homo sapiens, UniProt P30304); assay: Inhibition of human recombinant non-tyrosine phosphatase CDC25A (3-O-methylfluorescein phosphate); format: biochemical
T2 construct: purchased Sigma-Aldrich
T2 sequence (P30304 1-524): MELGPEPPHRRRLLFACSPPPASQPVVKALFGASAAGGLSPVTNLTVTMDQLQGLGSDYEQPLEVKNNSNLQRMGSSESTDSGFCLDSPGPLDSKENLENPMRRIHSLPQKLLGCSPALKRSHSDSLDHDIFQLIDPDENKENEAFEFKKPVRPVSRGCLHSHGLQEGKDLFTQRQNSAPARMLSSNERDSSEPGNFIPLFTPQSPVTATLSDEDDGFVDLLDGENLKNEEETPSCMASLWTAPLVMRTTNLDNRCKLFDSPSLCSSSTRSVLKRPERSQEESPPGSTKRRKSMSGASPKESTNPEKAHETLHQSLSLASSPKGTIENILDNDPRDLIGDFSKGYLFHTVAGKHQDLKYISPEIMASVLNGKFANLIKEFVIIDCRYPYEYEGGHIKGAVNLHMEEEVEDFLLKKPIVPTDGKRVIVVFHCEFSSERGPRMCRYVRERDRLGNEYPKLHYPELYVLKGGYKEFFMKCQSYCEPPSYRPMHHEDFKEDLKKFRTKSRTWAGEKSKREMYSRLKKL
Procedure, shortened: (§1)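 Compound pre-incubated 10 min with enzyme: PP2A at 0.5 U/mL in 50 mM Tris-HCl pH 7.0, 0.05% Tween-20, 125 µg/mL BSA with 0.1 mM DiFMUP; CDC25A at 400 ng/mL with 0.2 mM 3-O-methylfluorescein phosphate. Incubation 180 min at 23 °C; fluorescence (ex 355/em 560 nm) read, percent inhibition versus vehicle control, triplicate.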

PP2A = PP2A (Homo sapiens, UniProt P67775); assay: Inhibition of human recombinant non-tyrosine phosphatase PP2A (DiFMUP); format: biochemical
PP2A, sequence (P67775 whole entry): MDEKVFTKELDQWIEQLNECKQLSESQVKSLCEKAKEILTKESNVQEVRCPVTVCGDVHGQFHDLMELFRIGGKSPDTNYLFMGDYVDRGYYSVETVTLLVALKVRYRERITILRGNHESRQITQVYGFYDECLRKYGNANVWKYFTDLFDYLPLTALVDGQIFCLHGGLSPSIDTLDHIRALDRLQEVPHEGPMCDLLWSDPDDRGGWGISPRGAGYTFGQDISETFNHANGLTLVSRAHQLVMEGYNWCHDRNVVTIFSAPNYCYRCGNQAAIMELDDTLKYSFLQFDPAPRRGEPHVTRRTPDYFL
Procedure, shortened: as §1

hepatocytes HepG2 = assay: Lipid accumulation in the cell model of NAFLD (oleic acid, AdipoRed); format: cell-based, human; conditions: 10 µM; 24 h
Procedure: The human hepatocyte HepG2 cell line (ATCC HB-8065) was cultured according to standard protocol in DMEM supplemented with 10% fetal bovine serum, 100 IU/mL penicillin, and […] streptomycin at 37 °C in 5% CO2. Cells were pleated on a 96-well microplate and were used at 18–24 h after seeding.
The induction of hepatic lipid accumulation and studies on the effect of vanadium complexes on this process were carried out based on previous descriptions. […] After 16–24 h, the standard medium was changed for DMEM with 0.1% BSA fatty acid free and 0.5 mM oleic acid as sodium salt and tested compounds were added. Cells were incubated for 24 h, and the intracellular lipid content was evaluated using AdipoRed Adipogenesis Assay Reagent (Lonza) according to the manufacturer’s protocol. Hepatocytes were washed with PBS with calcium and magnesium, and 5 µL AdipoRed Reagent in 200 µL PBS was added, with the mixture incubated for 10 min at 22 °C. Fluorescence signal proportional to lipid content in cells was measured at excitation in 530 nm and emission in 550 nm using a multimodal microplate reader POLARStar Omega (BMG Labtech). The results were normalized to the untreated control (cells with solvent only), wherein the intensity of fluorescence was taken as 100%.

| SMILES | IC50 (SHP2) | Inhibition of SHP2, percentage of inhibition of the control (SHP2) | Inhibition of CDC25A, percentage inhibition of control ± SD (CDC25A; 1 µM) | Inhibition of CDC25A, percentage inhibition of control ± SD (CDC25A; 10 µM) | Inhibition of PP2A, percentage inhibition of control ± SD (PP2A; 1 µM) | Inhibition of PP2A, percentage inhibition of control ± SD (PP2A; 10 µM) | Lipid accumulation in hepatocytes after steatosis induction with oleic acid, % of control (hepatocytes HepG2) |
| --- | --- | --- | --- | --- | --- | --- | --- |
| Cc1occc(=O)c1[O-].Cc1occc(=O)c1[O-].[O]=[V+2] [BMOV, bis(maltolato)oxidovanadium(IV), reference compound] | 8 nM | 82% | 54 ± 1% | 61 ± 1% | 52 ± 15% | 63 ± 4% | did not have any significant effect |
| O=S(=O)([O-])[O-].[O]=[V+2] [VOSO4, reference compound] | 13 nM | 77% | 54 ± 2% | 62 ± 1% | 32 ± 2% | 40 ± 3% | did not have any significant effect |
